{"source": "patent US20040241166A1", "about": "“Use of inhibitors of ikk-beta and method for discovery of said inhibitors” (priority 2001, published 2004)", "key": {"[1]": {"tested_on": "IKK complex", "assay": "Immunoprecipitation and kinase assay of IKK complex from stimulated HUVEC (GST-IκB-α phosphorylation)", "assay_type": "cell-based, human", "procedure": "Cells were incubated as indicated and cytosol extracts were made. Immunoprecipitation (IP) with antikinase antibodies as indicated was followed by a kinase assay using the substrate GST.IκB-α in the presence of ^32P-ATP. A time-dependent phosphorylation of the substrate is shown in each case after stimulation of HUVEC with blood platelets (PLT; 2×10^8/ml) (FIG. 6A), IL-1β (100 pg/ml) (FIG. 6B) or TNF (1.67 ng/ml) (FIG. 6C). A representative experiment is shown for each case (n=3). FIG. 6D: the kinase assays were scanned and analysed densitometrically.\nCytosol extracts were subjected to immunoprecipitation (IP) (7) in TNT buffer containing 1 mM dithiothreitol, 0.5 μM 4-(2-aminoethyl)-benzenesulfonyl fluoride (AEBSF) and 0.75 μg/ml each of leupeptin, antipain, aprotinin, pepstatin A and chymostatin (Sigma). […] After washing three times with TNT and kinase buffer each time (20 mM HEPES, pH 8.0; 10 mM MgCl2, 100 μM Na3VO4; 20 mM β-glycerophosphate; 50 mM NaCl; 2 mM dithiothreitol; 0.5 μM AEBSF; 0.75 μg/ml each of leupeptin, antipain, aprotinin, pepstatin A, chymostatin), the precipitated proteins were analysed by a kinase assay. […] Proteins were analysed with PAGE and visualised by means of autoradiography. […]"}, "[2]": {"tested_on": "IκB-α and IκB-ε", "assay": "Western blot of IκB-α/IκB-ε proteolysis in stimulated HUVEC", "assay_type": "cell-based, human", "procedure": "FIG. 5A: nuclear extracts from HUVEC stimulated with blood platelets (PLT; 2×10^8/ml) were examined by EMSA for NF-κB or Sp-1 binding, which is shown in brackets. FIG. 5B: cytosol extracts from cells stimulated with blood platelets were analysed by means of western blots. The proteins IκB-α, IκB-ε, IKK-α and IKK-β are indicated by arrow heads. α-Actin was used as a loading control. FIG. 5C: cytosol extracts from cells stimulated with IL-β (100 pg/ml) were examined by means of western blots. FIG. 5D: cells were incubated with TNF (1.67 ng/ml) and cytosol extracts were examined by means of western blots. The top arrow indicates the phosphorylated forms of IκB-α or IκB-ε. A representative blot is shown for all cases (n=3).\nCytosol extracts were isolated, and electrophoresis and blotting were carried out as described in the prior art (6, 7). After transfer, the membranes were incubated with antibodies to IκB-α (Santa Cruz Biotechnology, Heidelberg), IκB-ε (Prof. N. Rice, NIH, Frederick, Md.), IKK-α, IKK-β (Santa Cruz Biotechnology) or α-actin (Sigma). The proteins were visualised on X-ray film using a western blot chemiluminescence reagent (NEN Life Science Products). Protein sizes were confirmed by means of molecular weight standards (Amersham Pharmacia Biotech, Braunschweig, Bio-Rad, Munich). […]"}}, "data": [{"substance": "IL-1β: cytokine used as stimulus of HUVEC, 100 pg/ml", "values": [{"measurement": "time for which IKK activation is maintained", "setting": "[1]", "result": "at least 90 minutes"}, {"measurement": "time of IKK activation peak", "setting": "[1]", "result": 45, "unit": "min"}, {"measurement": "beginning of IκB-α degradation after incubation", "setting": "[2]", "result": 15, "unit": "min"}, {"measurement": "time of significant IκB-ε proteolysis", "setting": "[2]", "result": 60, "unit": "min"}]}]}
